{"source": "ChEMBL document CHEMBL1156805", "about": "“Development of (S)-N6-(2-(4-(isoquinolin-1-yl)piperazin-1-yl)ethyl)-N6-propyl-4,5,6,7-tetrahydrobenzo[d]-thiazole-2,6-diamine and its analogue as a D3 receptor preferring agonist: potent in vivo activity in Parkinson's disease animal models” (J Med Chem, 2010)", "key": {"D(2) dopamine receptor [1]": {"target": "T1, D(2) dopamine receptor (Homo sapiens, UniProt P14416)", "T1 sequence (P14416 whole entry)": "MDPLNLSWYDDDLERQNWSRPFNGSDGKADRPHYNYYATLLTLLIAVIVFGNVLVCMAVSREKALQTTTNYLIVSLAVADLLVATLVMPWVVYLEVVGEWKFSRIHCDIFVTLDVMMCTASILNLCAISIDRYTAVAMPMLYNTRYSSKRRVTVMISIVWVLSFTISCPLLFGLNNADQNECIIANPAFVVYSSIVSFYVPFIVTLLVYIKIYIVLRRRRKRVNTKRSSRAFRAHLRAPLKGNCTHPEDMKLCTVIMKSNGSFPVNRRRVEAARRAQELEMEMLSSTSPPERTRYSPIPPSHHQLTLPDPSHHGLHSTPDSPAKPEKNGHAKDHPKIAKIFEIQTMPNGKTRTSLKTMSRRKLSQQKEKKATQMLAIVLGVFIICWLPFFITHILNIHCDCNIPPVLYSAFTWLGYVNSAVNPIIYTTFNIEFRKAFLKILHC", "test": "biochemical"}, "D(3) dopamine receptor [2]": {"target": "T2, D(3) dopamine receptor (Homo sapiens, UniProt P35462)", "T2 sequence (P35462 whole entry)": "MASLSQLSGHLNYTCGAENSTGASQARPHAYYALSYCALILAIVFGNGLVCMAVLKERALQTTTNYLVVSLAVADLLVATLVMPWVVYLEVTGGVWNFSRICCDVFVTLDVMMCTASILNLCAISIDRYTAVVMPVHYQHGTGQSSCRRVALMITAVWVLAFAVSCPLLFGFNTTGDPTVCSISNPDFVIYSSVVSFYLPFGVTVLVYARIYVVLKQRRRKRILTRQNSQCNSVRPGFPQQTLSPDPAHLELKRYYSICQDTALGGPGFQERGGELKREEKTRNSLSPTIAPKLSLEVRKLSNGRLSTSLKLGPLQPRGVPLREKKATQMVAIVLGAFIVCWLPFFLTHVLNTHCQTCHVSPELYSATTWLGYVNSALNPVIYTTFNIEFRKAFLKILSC", "test": "biochemical"}, "[3]": {"test_system": "Radical scavenging activity", "description": "Antioxidant activity assessed as DPPH radical scavenging activity"}, "D(2) dopamine receptor [4]": {"target": "T1, D(2) dopamine receptor", "test": "Agonist activity at human dopamine D2L receptor expressed in CHO cells assessed as stimulation of [35S]GTPgamma binding relative to 1 mM dopamine", "assay_type": "functional, cell-based"}, "D(2) dopamine receptor [5]": {"target": "D(2) dopamine receptor (Rattus norvegicus, UniProt P61169)", "sequence (P61169 whole entry)": "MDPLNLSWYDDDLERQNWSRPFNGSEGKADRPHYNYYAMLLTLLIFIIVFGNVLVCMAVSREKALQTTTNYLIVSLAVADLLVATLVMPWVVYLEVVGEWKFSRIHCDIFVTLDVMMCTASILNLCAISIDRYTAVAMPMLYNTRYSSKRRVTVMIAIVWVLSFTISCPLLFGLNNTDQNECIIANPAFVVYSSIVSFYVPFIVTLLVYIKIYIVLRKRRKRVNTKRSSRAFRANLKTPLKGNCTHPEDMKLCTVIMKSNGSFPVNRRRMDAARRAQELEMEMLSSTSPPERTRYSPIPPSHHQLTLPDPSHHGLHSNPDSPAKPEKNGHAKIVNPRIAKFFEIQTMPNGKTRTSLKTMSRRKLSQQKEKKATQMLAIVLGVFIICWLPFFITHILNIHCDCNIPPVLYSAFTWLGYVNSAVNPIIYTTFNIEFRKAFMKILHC", "test": "biochemical"}, "D(3) dopamine receptor [6]": {"target": "T3, D(3) dopamine receptor (Rattus norvegicus, UniProt P19020)", "T3 sequence (P19020 whole entry)": "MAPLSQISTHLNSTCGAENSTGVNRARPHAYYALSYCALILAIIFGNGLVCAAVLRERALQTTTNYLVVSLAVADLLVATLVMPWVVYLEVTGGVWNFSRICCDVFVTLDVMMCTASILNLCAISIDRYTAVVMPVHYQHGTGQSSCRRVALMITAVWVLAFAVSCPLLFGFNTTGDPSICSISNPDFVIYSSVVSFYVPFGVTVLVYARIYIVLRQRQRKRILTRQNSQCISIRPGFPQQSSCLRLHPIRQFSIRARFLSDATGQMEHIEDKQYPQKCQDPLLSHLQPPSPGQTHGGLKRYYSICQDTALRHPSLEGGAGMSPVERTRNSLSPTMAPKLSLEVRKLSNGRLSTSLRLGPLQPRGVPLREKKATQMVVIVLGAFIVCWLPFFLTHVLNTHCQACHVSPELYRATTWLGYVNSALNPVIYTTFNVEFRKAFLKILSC"}, "D(2) dopamine receptor [7]": {"target": "T1, D(2) dopamine receptor"}, "D(3) dopamine receptor [8]": {"target": "T2, D(3) dopamine receptor"}, "D(3) dopamine receptor [9]": {"target": "T3, D(3) dopamine receptor", "test": "biochemical"}}}
{"smiles": "CCCN(CCN1CCN(c2cccc3ncccc23)CC1)[C@H]1CCc2nc(N)sc2C1", "values": [{"measurement": "EC50", "setting": "D(2) dopamine receptor [1]", "value": 13.5, "unit": "nM"}, {"measurement": "EC50", "setting": "D(3) dopamine receptor [2]", "value": 0.528, "unit": "nM"}, {"measurement": "IC50", "setting": "[3]", "value": 39700, "unit": "nM"}, {"measurement": "Emax", "setting": "D(2) dopamine receptor [4]", "value": 104, "unit": "%"}, {"measurement": "Ki", "setting": "D(2) dopamine receptor [5]", "value": 57.7, "unit": "nM"}]}
{"smiles": "CCCN(CCN1CCN(c2ccc(-c3ccncc3)cc2)CC1)[C@H]1CCc2nc(N)sc2C1", "values": [{"measurement": "Ki", "setting": "D(2) dopamine receptor [5]", "value": 270, "unit": "nM"}]}
{"smiles": "CCCN(CCN1CCN(c2nccc3ccccc23)CC1)C1CCc2ccc(O)cc2C1", "note": "(stereo not given)", "values": [{"measurement": "Ki", "setting": "D(2) dopamine receptor [5]", "value": 21.7, "unit": "nM"}]}
{"smiles": "CCCN(CCN1CCN(C(=O)c2cc3ccccc3[nH]2)CC1)[C@H]1CCc2c(O)cccc2C1", "values": [{"measurement": "Ki", "setting": "D(3) dopamine receptor [6]", "value": 0.57, "unit": "nM"}]}
{"smiles": "CCCN(CCN1CCN(c2ccc3ccccc3c2)CC1)C1CCc2ccc(O)cc2C1", "note": "(stereo not given)", "values": [{"measurement": "Ki", "setting": "D(2) dopamine receptor [5]", "value": 8.85, "unit": "nM"}]}
{"smiles": "CCCN(CCN1CCN(c2ccc(-c3ccccc3)cc2)CC1)[C@H]1CCc2nc(N)sc2C1", "values": [{"measurement": "EC50", "setting": "D(2) dopamine receptor [7]", "value": 19.9, "unit": "nM"}, {"measurement": "EC50", "setting": "D(3) dopamine receptor [8]", "value": 0.085, "unit": "nM"}]}
{"smiles": "CCCN(CCN1CCN(c2ccnc3ccccc23)CC1)C1CCc2ccc(O)cc2C1", "note": "(stereo not given)", "values": [{"measurement": "Ki", "setting": "D(2) dopamine receptor [5]", "value": 7.08, "unit": "nM"}, {"measurement": "Ki", "setting": "D(3) dopamine receptor [9]", "value": 2.65, "unit": "nM"}]}
{"smiles": "CCCN(CCN1CCN(c2cccc3ncccc23)CC1)C1CCc2ccc(O)cc2C1", "note": "(stereo not given)", "values": [{"measurement": "Ki", "setting": "D(2) dopamine receptor [5]", "value": 5.22, "unit": "nM"}]}
{"smiles": "CCCN(CCN1CCN(c2cccc3ccccc23)CC1)C1CCc2ccc(O)cc2C1", "note": "(stereo not given)", "values": [{"measurement": "Ki", "setting": "D(2) dopamine receptor [5]", "value": 13.5, "unit": "nM"}]}
{"smiles": "CCCN(CCC)CCc1cccc2c1CC(=O)N2", "note": "[ROPINIROLE]", "values": [{"measurement": "EC50", "setting": "D(2) dopamine receptor [1]", "value": 304, "unit": "nM"}]}
{"smiles": "CCCN(CCN1CCN(c2ccnc3ccccc23)CC1)[C@H]1CCc2nc(N)sc2C1", "values": [{"measurement": "EC50", "setting": "D(2) dopamine receptor [1]", "value": 77.2, "unit": "nM"}, {"measurement": "EC50", "setting": "D(3) dopamine receptor [2]", "value": 0.493, "unit": "nM"}, {"measurement": "Emax", "setting": "D(2) dopamine receptor [4]", "value": 118, "unit": "%"}, {"measurement": "Ki", "setting": "D(2) dopamine receptor [5]", "value": 109, "unit": "nM"}]}
{"smiles": "CCCN(CCN1CCN(c2nccc3ccccc23)CC1)[C@H]1CCc2nc(N)sc2C1", "values": [{"measurement": "EC50", "setting": "D(3) dopamine receptor [2]", "value": 0.52, "unit": "nM"}, {"measurement": "IC50", "setting": "[3]", "value": 45700, "unit": "nM"}, {"measurement": "EC50", "setting": "D(2) dopamine receptor [7]", "value": 116, "unit": "nM"}, {"measurement": "Ki", "setting": "D(2) dopamine receptor [5]", "value": 269, "unit": "nM"}, {"measurement": "Ki", "setting": "D(3) dopamine receptor [9]", "value": 2.23, "unit": "nM"}]}
